In PMC6063800 (Peptides, 2018):
Counter-ions that a name gives are not always drawn. No end group written: not given here.

Key:
[1] = system: Staphylococcus aureus USA300; experiment: microbe, parasite or virus in culture; format: cell-based; conditions: for MIC, SA: USA300, 20 h
[2] = system: Bacillus subtilis 168; experiment: microbe, parasite or virus in culture; format: cell-based; conditions: for MIC, BS: 168, 20 h
[3] = system: Escherichia coli ATCC 25922; experiment: microbe, parasite or virus in culture; format: cell-based; conditions: for MIC, EC: ATCC 25922, 20 h
[4] = system: Klebsiella pneumoniae ATCC 13883; experiment: microbe, parasite or virus in culture; format: cell-based; conditions: for MIC, KP: ATCC 13883, 20 h
[5] = system: Pseudomonas aeruginosa PAO1; experiment: microbe, parasite or virus in culture; format: cell-based; conditions: PAO1, 20 h
[6] = system: S. aureus USA300 biofilm; experiment: Disruption of 24-h preformed biofilms; format: cell-based, Staphylococcus aureus; conditions: linezolid in the presence of 1.56 μM temporin-1OLa versus antibiotic alone, XTT
[7] = system: S. aureus USA300; experiment: Checkerboard synergy of peptide and antibiotics; format: cell-based, Staphylococcus aureus; conditions: in combination with temporin-1OLa
[8] = system: Candida albicans ATCC 10231; format: cell-based; conditions: ATCC 10231, 48 h
[9] = system: C. glabrata ATCC 2001; format: cell-based, Candida glabrata; conditions: ATCC 2001, 48 h
[10] = system: C. tropicalis ATCC 13803; format: cell-based, Candida tropicalis; conditions: ATCC 13803, 48 h
[11] = system: Human red blood cells (hRBC); experiment: Hemolytic assay; format: cell-based; conditions: red cells of human, 1 h

Compound	MIC ([1]; Staphylococcus aureus, MRSA|USA300, 20 h, read-out: MIC, SA)	MIC ([2]; Bacillus subtilis, 168, 20 h, read-out: MIC, BS)	MIC ([3]; Escherichia coli, ATCC25922, 20 h, read-out: MIC, EC)	MIC ([4]; Klebsiella pneumoniae, ATCC13883, 20 h, read-out: MIC, KP)	MIC ([5]; Pseudomonas aeruginosa, read-out: MIC, PA)	disruption of 24 h established biofilms by combination [6]	combined effect with the peptide [7]	MIC, SA [1]	MIC, BS [2]	MIC, EC [3]	MIC, KP [4]	MIC, PA [5]	MIC, C. albicans [8]	MIC, C. glabrata [9]	MIC, C. tropicalis [10]	HL50 (peptide concentration that causes 50% hemolysis) [11]
CN[C@H](CC(C)C)C(=O)N[C@H]1C(=O)N[C@@H](CC(N)=O)C(=O)N[C@H]2C(=O)N[C@H]3C(=O)N[C@H](C(=O)N[C@H](C(=O)O)c4cc(O)cc(O)c4-c4cc3ccc4O)[C@H](O)c3ccc(c(Cl)c3)Oc3cc2cc(c3O[C@@H]2O[C@H](CO)[C@@H](O)[C@H](O)[C@H]2O[C@H]2C[C@](C)(N)[C@H](O)[C@H](C)O2)Oc2ccc(cc2Cl)[C@H]1O [Vancomycin, vancomycin hydrochloride, reference compound]	0.78 µM	> 3.1 µM	> 50 µM	> 50 µM	> 50 µM											
CC(=O)NC[C@H]1CN(c2ccc(N3CCOCC3)c(F)c2)C(=O)O1 [linezolid]						reduce biofilms more effectively	additive effect									
FLPIVGRLISGIL [temporin-CPb]								12.5 µM	25 to 50 µM	>50 µM	>50 µM	>50 µM	50 µM	>50 µM	6.2 to 12.5 µM	
FLPLLASLFSRLF [temporin-1Oc]									12.5 µM	>50 µM	>50 µM	>50 µM	25 µM	25 µM	1.6 to 3.1 µM	<12.5 µM
FLSAITSILGKFF [temporin-1SPa]								6.3 µM	12.5 µM	>50 µM	>50 µM	>50 µM	25 µM	25 µM	6.2 µM	37.5 µM
IPPFIKKVLTTVF [temporin-CPa]								≥25 µM	50 µM	12.5 µM	50 µM	>50 µM	25 µM	12.5 µM	3.1 to 6.2 µM	
SILPTIVSFLSKVF [temporin-1Ga]								3.1 µM	6.3 µM	>50 µM	>50 µM	>50 µM	12.5 µM	12.5 µM	3.1 µM	12.5 µM
